Some results are limits rather than exact numbers.

Usually IC50 stands for the concentration that gives 50% inhibition.

In the assay the target is T1, LRRK2 kinase in SH-SY5Y cells over-expressing recombinant full length LRRK2 (Homo sapiens, UniProt Q5S007).
T1 construct: A BacMam virus expressing full length recombinant LRRK2 was purchased from Invitrogen; host or cells: SH-SY5Y human neuroblastoma cells transduced with BacMam LRRK2 virus
T1 sequence (Q5S007 whole entry): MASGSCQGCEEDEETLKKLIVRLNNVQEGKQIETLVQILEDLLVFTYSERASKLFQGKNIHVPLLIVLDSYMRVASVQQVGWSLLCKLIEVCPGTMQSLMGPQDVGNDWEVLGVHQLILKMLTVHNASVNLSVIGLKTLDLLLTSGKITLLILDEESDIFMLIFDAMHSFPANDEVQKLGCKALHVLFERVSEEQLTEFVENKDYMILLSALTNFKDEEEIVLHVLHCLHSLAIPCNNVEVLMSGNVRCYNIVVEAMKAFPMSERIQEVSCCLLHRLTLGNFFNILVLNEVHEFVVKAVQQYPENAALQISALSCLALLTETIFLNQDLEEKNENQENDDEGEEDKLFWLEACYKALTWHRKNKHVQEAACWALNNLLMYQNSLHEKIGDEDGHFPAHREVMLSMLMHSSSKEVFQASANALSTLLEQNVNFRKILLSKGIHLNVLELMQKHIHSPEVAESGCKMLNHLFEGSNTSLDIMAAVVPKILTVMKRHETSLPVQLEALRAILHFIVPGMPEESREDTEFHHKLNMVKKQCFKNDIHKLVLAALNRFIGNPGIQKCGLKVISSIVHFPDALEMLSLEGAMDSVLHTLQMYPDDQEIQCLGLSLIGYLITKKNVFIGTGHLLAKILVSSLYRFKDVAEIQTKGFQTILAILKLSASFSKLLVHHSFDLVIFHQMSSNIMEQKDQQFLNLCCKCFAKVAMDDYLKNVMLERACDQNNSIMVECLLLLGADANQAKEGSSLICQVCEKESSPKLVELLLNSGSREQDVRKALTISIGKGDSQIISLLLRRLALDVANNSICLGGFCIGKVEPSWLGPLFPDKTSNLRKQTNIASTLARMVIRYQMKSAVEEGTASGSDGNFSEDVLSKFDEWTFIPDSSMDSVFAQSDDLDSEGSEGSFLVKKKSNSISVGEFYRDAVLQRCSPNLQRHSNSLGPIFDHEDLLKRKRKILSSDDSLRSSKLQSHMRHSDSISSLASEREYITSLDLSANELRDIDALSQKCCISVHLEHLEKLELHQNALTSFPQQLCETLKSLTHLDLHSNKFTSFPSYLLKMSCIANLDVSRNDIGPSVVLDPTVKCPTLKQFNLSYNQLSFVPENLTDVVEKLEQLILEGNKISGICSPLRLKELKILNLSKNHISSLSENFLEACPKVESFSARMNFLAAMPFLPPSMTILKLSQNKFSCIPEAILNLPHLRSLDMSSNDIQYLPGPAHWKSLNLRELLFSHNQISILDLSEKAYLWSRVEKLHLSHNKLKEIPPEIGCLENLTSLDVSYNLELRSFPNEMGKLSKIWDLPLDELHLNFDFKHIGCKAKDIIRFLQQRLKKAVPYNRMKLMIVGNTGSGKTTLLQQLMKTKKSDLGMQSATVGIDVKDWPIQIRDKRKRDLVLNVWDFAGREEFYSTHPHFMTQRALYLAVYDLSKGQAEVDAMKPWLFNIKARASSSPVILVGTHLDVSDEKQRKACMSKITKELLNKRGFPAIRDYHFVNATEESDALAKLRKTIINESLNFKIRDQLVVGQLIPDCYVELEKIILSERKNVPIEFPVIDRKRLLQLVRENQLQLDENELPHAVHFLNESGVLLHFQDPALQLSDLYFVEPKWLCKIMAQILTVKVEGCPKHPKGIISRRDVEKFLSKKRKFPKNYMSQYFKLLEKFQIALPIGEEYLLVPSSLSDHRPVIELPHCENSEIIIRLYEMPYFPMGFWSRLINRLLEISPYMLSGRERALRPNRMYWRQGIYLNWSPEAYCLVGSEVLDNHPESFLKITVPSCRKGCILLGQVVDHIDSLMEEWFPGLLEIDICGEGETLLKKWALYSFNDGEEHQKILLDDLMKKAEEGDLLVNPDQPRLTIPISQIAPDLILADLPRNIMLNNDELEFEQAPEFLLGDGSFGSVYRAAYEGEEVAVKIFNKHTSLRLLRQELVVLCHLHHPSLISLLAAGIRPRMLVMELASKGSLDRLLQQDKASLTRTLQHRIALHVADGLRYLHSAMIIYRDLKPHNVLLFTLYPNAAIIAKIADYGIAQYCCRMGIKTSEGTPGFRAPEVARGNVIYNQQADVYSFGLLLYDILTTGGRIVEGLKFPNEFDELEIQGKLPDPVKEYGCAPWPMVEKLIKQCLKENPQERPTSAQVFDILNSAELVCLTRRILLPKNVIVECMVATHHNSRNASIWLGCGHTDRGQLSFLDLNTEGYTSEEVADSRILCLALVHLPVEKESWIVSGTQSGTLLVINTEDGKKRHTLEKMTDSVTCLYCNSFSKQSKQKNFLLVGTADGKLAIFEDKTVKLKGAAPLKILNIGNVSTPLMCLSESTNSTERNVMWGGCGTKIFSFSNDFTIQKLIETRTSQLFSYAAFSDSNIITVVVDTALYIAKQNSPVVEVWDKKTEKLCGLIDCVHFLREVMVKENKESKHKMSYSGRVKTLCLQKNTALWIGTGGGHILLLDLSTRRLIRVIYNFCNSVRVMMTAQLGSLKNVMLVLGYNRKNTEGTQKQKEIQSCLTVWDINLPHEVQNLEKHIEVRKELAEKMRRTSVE
As to the kind of experiment: Recombinant cellular LRRK2 AlphaScreen assay (LRRK2 Ser935 phosphorylation). The class given is cell-based. The following applies: 60 min. From the text: b. Recombinant Cellular LRRK2 AlphaScreen Assay
To determine the activity of compounds against LRRK2 kinase in cells, the observed LRRK2 kinase-dependent modulation of LRRK2 Ser 935 phosphorylation (Dzamko et al., 2010, Biochem. J. 430: 405-413) was utilized to develop a quantitative 384 well plate-based immunoassay of LRRK2 Ser935 phosphorylation in the human neuroblastoma cell line SH-SY5Y, engineered to over-express recombinant full length LRRK2 protein.
A BacMam virus expressing full length recombinant LRRK2 was purchased from Invitrogen and amplified by inoculation of SF-9 cells at MOI 0.3 for 4-5 days in Sf-900 III SFM medium supplemented with 3% fetal bovine serum. Infected cell cultures were then centrifuged at 2000 g for 20 minutes, viral supernatant titer determined by anti-gp64 plaque assay and stored at 4° C.
Affinity-purified anti-phospho LRRK2 Ser935 sheep polyclonal antibody (Dzamko et al., 2010, Biochem. J. 430: 405-413) was biotinylated by standard methods (PerkinElmer). Anti-LRRK2 rabbit polyclonal antibody was purchased from Novus Biologicals. AlphaScreen Protein A IgG Kit (including acceptor and donor beads) was purchased from Perkin Elmer.
SH-SY5Y cells were grown in DMEM/F12 medium with 10% dialysed fetal bovine serum and harvested by treatment with 0.5% trypsin-EDTA for 5 minutes at 37° C. followed by centrifugation at 1000 rpm for 4 minutes. The cell pellet was resuspended in Opti-MEM reduced serum media (Invitrogen) at 200,000 cells/ml and mixed with the BacMam LRRK2 virus at M01=50. 50 μl cell solutions were then dispensed to each well of a 384-well plate and incubated at 37° C., 5% CO2 for 24 hours.
Compounds were prepared at 10× final assay concentration as 11 point 1 in 4 serial I dilutions in Opti-MEM reduced serum medium (Invitrogen 31985070) containing 1% DMSO. On the day of assay, 5.5 μl of the compound solutions were transferred from the compound plate to the cell assay plate to achieve a top final assay concentration of 10 uM. DMSO (0.1% final assay concentration) was added to column 6 and 2-(benzyloxy)-5-methyl-4-(1-methyl-1H-pyrazol-4-yl)-N-(pyridin-3-yl)benzamide (2 μM final assay concentration) was added to column 18 to serve as 0% and 100% inhibition controls, respectively.
Cells were incubated at 37° C., 5% CO2 for 60 minutes. The medium was then removed and cells lysed by addition of 20 μl of cell lysis buffer (Cell Signaling Technology) and incubation at 4° C. for 20 minutes. 10 μl of antibody/acceptor bead mix [(1/1000 biotinylated-pS935 LRRK2 antibody, 1/1000 total-LRRK2 antibody, 1/100 Acceptor beads in AlphaScreen detection buffer (25 mM Hepes (pH 7.4), 0.5% Triton X-100, 1 mg/ml Dextran 500 and 0.1% BSA)] was then added to each well and plates incubated for 2 hours at ambient temperature in the dark. 10 μl of donor beads solution (1/33.3 donor beads in AlphaScreen detection buffer) was then added to each well. Following incubation for a further 2 hours at ambient temperature in the dark, plates were read on an EnVision™ plate reader at emission 520-620 nm with excitation 680 nm. Dose response curve data was based on a sigmoidal dose-response model.
As to `Cc1c2c(nn1C1COC1)OCC(F)CNc1nc(ncc1Cl)N2` (single isomer, unassigned) [E322, 14-Chloro-10-fluoro-4-methyl-5-(oxetan-3-yl)-8-oxa-2,5,6,12,16,17-hexaazatricyclo[11.3.1.0^3,7]heptadeca-1(16),3,6,13(17),14-pentaene], the IC50 was at most 100 nM.

For the compound `COC1CNc2nc(ncc2Cl)Nc2c(nn(C3CCCOC3)c2C)OC1` (single isomer, unassigned) [E229, 14-Chloro-10-methoxy-4-methyl-5-(oxan-3-yl)-8-oxa-2,5,6,12,16,17-hexaazatricyclo[11.3.1.0^3,7]heptadeca-1(17),3,6,13,15-pentaene], the IC50 is at most 100 nM. Next, `Cc1c2c(nn1C1CC3(COC3)C1)OCCC(C)Nc1nc(ncc1Cl)N2` (racemic): over 10000 nM. As for `Cc1c2c(nn1C1CCOCC1)OCC(F)CNc1nc(ncc1Cl)N2` (stereo not drawn) [E16, 14-Chloro-10-fluoro-4-methyl-5-(oxan-4-yl)-8-oxa-2,5,6,12,16,17-hexaazatricyclo [11.3.1.0^3,7]heptadeca-1(16),3,6,13(17),14-pentaene], the figure is at most 100 nM; as for `Cc1c2c(nn1C1CC(N3C[C@H]4C[C@@H]3CO4)C1)OCCCNc1nc(ncc1Cl)N2` (stereo partly drawn) [E310, 14-Chloro-4-methyl-5-{3-[(1R,4R)-2-oxa-5-azabicyclo[2.2.1]heptan-5-yl]-cyclobutyl}-8-oxa-2,5,6,12,16,17-hexaazatricyclo [11.3.1.0^3,7]heptadeca-1(16),3,6,13(17),14-pentaene], at most 100 nM. As for `Cc1c2c(nn1C1CCOCC1)OCCCNc1nc(ncc1C(F)(F)F)N2` [E111, 4-Methyl-5-(oxan-4-yl)-14-(trifluoromethyl)-8-oxa-2,5,6,12,16, 17-hexaazatricyclo[11.3.1.0^3,7]heptadeca-1(16),3,6,13(17),14-pentaene], the figure is at most 100 nM.

Take `COC1CNc2nc(ncc2Cl)Nc2c(nn(C3CCC(C)CC3)c2C)OC1` (single isomer, unassigned) [E255, 14-Chloro-10-methoxy-4-methyl-5-(4-methylcyclohexyl)-8-oxa-2,5,6,12,16,17-hexaazatricyclo [11.3.1.0^3,7] heptadeca-1(16),3,6,13(17),14-pentaene]: the IC50 is at most 100 nM. As for `COCCN1CCC(n2nc3c(c2C)Nc2ncc(Cl)c(n2)NCCCO3)C(F)C1` (single isomer, unassigned) [E59, trans-14-chloro-5-[3-fluoro-1-(2-methoxyethyl)piperidin-4-yl]-4-methyl-8-oxa-2,5,6,12,16,17-hexaazatricyclo[11.3.1.0^3,7]heptadeca 1(16),3,6,13(17),14-pentaene], the figure is at most 100 nM; as for `Cc1c2c(nn1C1CCCOC1)OCCC(C)Nc1cc(ncc1Cl)N2` (single isomer, unassigned) [E346, 14-Chloro-4,11-dimethyl-5-(oxan-3-yl)-8-oxa-2,5,6,12,16-pentaazatricyclo[11.3.1.0^3,7]heptadeca-1(16),3,6,13 (17),14-pentaene], at most 100 nM. Next, `Cc1c2c(nn1C1COCC(F)C1)OCCCNc1nc(ncc1Cl)N2` (single isomer, unassigned) [E371, 14-Chloro-5[5-fluorooxan-3-yl]-4-methyl-8-oxa-2,5,6,12,16,17-hexaazatricyclo[11.3.1.0^3,7]heptadeca-1(16),3,6, 13(17),14-pentaene]: at most 100 nM; `COC1COc2nc(ncc2Cl)Nc2c(nn(C3CCOCC3)c2C)OC1` (single isomer, unassigned) [E328, 14-Chloro-10-methoxy-4-methyl-5-(oxan-4-yl)-8,12-dioxa-2,5,6,16,17-pentaazatricyclo[11.3.1.0^3,7]heptadeca-1(16),3,6,13(17),14-pentaene]: at most 100 nM. As for `COC1CCC(n2nc3c(c2C)Nc2ncc(Cl)c(n2)NCC(OC)CO3)CC1` (single isomer, unassigned) [E239, 14-Chloro-10-methoxy-5-(4-methoxycyclohexyl)-4-methyl-8-oxa-2,5,6,12,16,17-hexaazatricyclo [11.3.1. 0^3,7]heptadeca-1(16),3,6,13(17),14-pentaene], the figure is at most 100 nM; as for `Cc1c2c(nn1C(C)(C)C#N)OCCC(C)Nc1nc(ncc1Cl)N2` (single isomer, unassigned) [E44, 2-{14-chloro-4,11-dimethyl-8-oxa-2,5,6,12,16,17-hexaazatricyclo [11.3.1.0^3,7]heptadeca-1(16),3,6,13(17),14-pentaen-5-yl}-2-methylpropanenitrile], at most 100 nM; as for `Cc1c2c(nn1C1CCOCC1)OCCCNc1nc(ncc1C#N)N2` [E69, 4-Methyl-5-(oxan-4-yl)-8-oxa-2,5,6,12,16,17-hexaazatricyclo[11.3.1.0^3,7]heptadeca-1(16),3,6,13(17),14-pentaene-14-carbonitrile], at most 100 nM.

Turning to `COC1CNc2nc(ncc2Cl)Nc2c(nn(C3CCOCC3)c2C)OC1` (stereo not drawn) [E2, 14-Chloro-10-methoxy-4-methyl-5-(oxan-4-yl)-8-oxa-2,5,6,12,16,17-hexaazatricyclo [11.3.1.0^3,7]heptadeca-1(16),3,6,13(17),14-pentaene], the IC50 was at most 100 nM. Take `Cc1c2c(nn1C1CCCOC1)OCCCNc1nc(ncc1C(F)(F)F)N2` (stereo not drawn) [E131, 4-Methyl-5-(oxan-3-yl)-14-(trifluoromethyl)-8-oxa-2,5,6,12,16, 17-hexaazatricyclo[11.3.1.0^3,7]heptadeca-1(16),3,6,13(17),14-pentaene]: the IC50 is at most 100 nM. As for `Cc1c2c(nn1C(C)(C)CO)OCC[C@@H](C)Nc1nc(ncc1Cl)N2` [E452, 2-[(11R)-14-Chloro-4,11-dimethyl-8-oxa-2,5,6,12,16,17-hexaazatricyclo[11.3.1.0^3,7]heptadeca-1(16),3,6,13(17),14-pentaen-5-yl]-2-methylpropan-1-ol], the figure is at most 100 nM. As for `COC1CNc2nc(ncc2Cl)Nc2c(nn(C3CCOCC3)c2Cl)OC1` (single isomer, unassigned) [E341, 4,14-Dichloro-10-methoxy-5-(oxan-4-yl)-8-oxa-2,5,6,12,16,17-hexaazatricyclo[11.3.1.0^3,7]heptadeca-1(16),3,6,13(17),14-pentaene], the figure is at most 100 nM; as for `Cc1c2c(nn1C1CCOCC1)OCCC(C)Nc1cc(ncc1Cl)N2` (single isomer, unassigned) [E345, 14-Chloro-4,11-dimethyl-5-(oxan-4-yl)-8-oxa-2,5,6,12,16-pentaazatricyclo[11.3.1.0^3,7]heptadeca-1(16),3,6,13 (17),14-pentaene], at most 100 nM; as for `Cc1c2c(nn1C1CCC(C(F)(F)F)CC1)OCCC(C)Nc1nc(ncc1Cl)N2` (single isomer, unassigned) [E281, 4-Chloro-4,11-dimethyl-5-[4-(trifluoromethyl)cyclohexyl]-8-oxa-2,5,6,12,16,17-hexaazatricyclo[11.3.1.0^3,7] heptadeca-1(16),3,6,13(17),14-pentaene], at most 100 nM. As for `Cc1c2c(nn1CC1CCOCC1)OCCCNc1nc(ncc1Cl)N2` [E338, 14-Chloro-4-methyl-5-(oxan-4-ylmethyl)-8-oxa-2,5,6,12,16,17-hexaazatricyclo[11.3.1.0^3,7]heptadeca-1(16),3,6,13(17),14-pentaene], the figure is at most 100 nM. Consider `N#Cc1cnc2nc1NCCCOc1nn(C3CCOCC3)c(Cl)c1N2` [E15, 4-Chloro-5-(oxan-4-yl)-8-oxa-2,5,6,12,16,17-hexaazatricyclo[11.3.1.0^3,7]heptadeca-1(16),3,6,13(17),14-pentaene-14-carbonitrile], for which the IC50 is at most 100 nM. As for `Cc1c2c(nn1C1CCOCC1C(F)(F)F)OCC[C@@H](C)Nc1nc(ncc1Cl)N2` (single isomer, unassigned) [E448], the figure is at most 100 nM; as for `Cc1c2c(nn1C1CC(C)OC(C)C1)OCCCNc1nc(ncc1Cl)N2` (single isomer, unassigned) [E200, 14-Chloro-5-(2,6-dimethyloxan-4-yl)-4-methyl-8-oxa-2,5,6,12,16,17-hexaazatricyclo[11.3.1.0^3,7]heptadeca-1(16),3,6,13(17),14-pentaene], at most 100 nM.

Values taken from patent publication US20200392158A1, “INHIBITORS OF LEUCINE RICH REPEAT KINASE 2” (GLAXOSMITHKLINE INTELLECTUAL PROPERTY DEVELOPMENT LIMITED, priority 2017, published 2020).
